Data as given in PMC7031696 (Cell chemical biology, 2019).
Where two headings read alike, the source gives them in different places.

Columns and labels:
[1] = tested on: Plasmodium falciparum 3D7-A10 parasites; assay: Stage specificity assay (8-h exposure of synchronized stages, IC50^8h); type: cell-based; conditions: for IC50: Plasmodium falciparum
[2] = tested on: asynchronous 3D7-A10 parasite cultures; assay: Standard 72-h exposure asexual blood stage susceptibility assay (IC50^72h); type: cell-based, Plasmodium falciparum; conditions: Plasmodium falciparum, 3D7, 72 h, read-out: Overall (72hr assay) Mean IC50 (IC50^72h)
[3] = tested on: 3D7-MR4 trophozoite parasite-infected RBCs; assay: Metabolomic profiling (hydrophilic metabolite changes, UHPLC-MS); type: cell-based, Plasmodium falciparum
[4] = tested on: 3D7-MR4 trophozoite parasite-infected RBCs; conditions: 10 × IC50^72h; ref Allman et al., 2016; cited from earlier work

C[C@H]1Cc2c([nH]c3cc(Cl)c(F)cc23)[C@@]2(N1)C(=O)Nc1ccc(Cl)cc12 [KAE609, reference compound]
Ratio lowest IC50 8hr/IC50 72hr ([1]; 3D7-A10): 1.5 | overall activity profile (stages on which active) ([1]; 8-h exposures): inactive against rings yet active against early trophozoites and later stages | IC50 ([1]; 3D7, read-out: Early rings IC50 (IC50^8h)): > 1250 nM | IC50 ([1]; 3D7, read-out: Early trophozoites Mean IC50 (IC50^8h)): 3.2 nM | IC50 ([1]; 3D7, read-out: Late rings IC50 (IC50^8h)): > 1250 nM | IC50 ([1]; 3D7, read-out: Late trophozoites Mean IC50 (IC50^8h)): 1.1 nM | IC50 ([1]; 3D7, read-out: Schizonts Mean IC50 (IC50^8h)): 1.2 nM | IC50 [2]: 0.73 nM | Log2(fold changes) 3-phosphoglycerate ([3]; metabolite 3-phosphoglycerate, log2 fold change): 0.0100 | Log2(fold changes) 4-Pyridoxic acid ([3]; metabolite 4-Pyridoxic acid, log2 fold change): -0.6000 | Log2(fold changes) 4-aminobutyrate ([3]; metabolite 4-aminobutyrate, log2 fold change): -0.5400 | Log2(fold changes) 4-phosphopantetheine ([3]; metabolite 4-phosphopantetheine, log2 fold change): 0.0000 | Log2(fold changes) 4-phosphopantothenate ([3]; metabolite 4-phosphopantothenate, log2 fold change): -0.1500 | Log2(fold changes) 5-aminopentanoic acid ([3]; metabolite 5-aminopentanoic acid, log2 fold change): 0.0000 | Log2(fold changes) 5-methyl-THF ([3]; metabolite 5-methyl-THF, log2 fold change): 0.0000 | Log2(fold changes) 5-phosphoribosyl-1-pyrophosphate ([3]; metabolite 5-phosphoribosyl-1-pyrophosphate, log2 fold change): -2.9800 | Log2(fold changes) 6-phospho-D-gluconate ([3]; metabolite 6-phospho-D-gluconate, log2 fold change): -0.2800 | Log2(fold change) HVDD ([3]; metabolite HVDD): 0.0000 | Log2(fold change) Hydroxyisocaproic acid ([3]; metabolite Hydroxyisocaproic acid): 0.0000 | Log2(fold change) IDP ([3]; metabolite IDP): 0.0000 | Log2(fold change) IMP ([3]; metabolite IMP): 0.3800 | Log2(fold change) Inositol ([3]; metabolite Inositol): 0.0000 | Log2(fold change) Isopentyl-PP ([3]; metabolite Isopentyl-PP): 0.0000 | Log2(fold change) L-arginino-succinate ([3]; metabolite L-arginino-succinate): 0.0000 | Log2(fold change) LD ([3]; metabolite LD): -1.3200 | Log2(fold change) Myristoyl/tetradecanoyl-CoA ([3]; metabolite Myristoyl/tetradecanoyl-CoA): 0.0000 | Log2(fold change) N-Acetyl-L-alanine ([3]; metabolite N-Acetyl-L-alanine): -1.4200 | Log2(fold change) N-acetyl-L-ornithine ([3]; metabolite N-acetyl-L-ornithine): -1.2700 | Log2(fold change) N-acetyl-glucosamine-1/6-phosphate ([3]; metabolite N-acetyl-glucosamine-1/6-phosphate): -0.2300 | Log2(fold change) N-acetyl-glutamate ([3]; metabolite N-acetyl-glutamate): -0.2700 | Log2(fold change) N-acetyl-glutamine ([3]; metabolite N-acetyl-glutamine): -0.4300 | Log2(fold change) N-carbamoyl-L-aspartate ([3]; metabolite N-carbamoyl-L-aspartate): -4.5700 | Log2(fold change) NAD+ ([3]; metabolite NAD+): -0.4000 | Log2(fold change) NADH ([3]; metabolite NADH): 0.0300 | Log2(fold change) NADP+ ([3]; metabolite NADP+): -0.1200 | Log2(fold change) NADPH ([3]; metabolite NADPH): 0.3500 | Log2(fold change) O-acetyl-L-serine ([3]; metabolite O-acetyl-L-serine): 0.0000 | Log2(fold change) Octoluse 8/1P ([3]; metabolite Octoluse 8/1P): -0.7200 | Log2(fold change) Octoluse Bisphosphate ([3]; metabolite Octoluse Bisphosphate): -1.2000 | Log2(fold change) PD ([3]; metabolite PD): -1.2400 | Log2(fold change) PE ([3]; metabolite PE): -3.4900 | Log2(fold change) PEE ([3]; metabolite PEE): -5.3200 | Log2(fold change) PEEK ([3]; metabolite PEEK): -1.5400 | Log2(fold change) PVNF ([3]; metabolite PVNF): -2.0700 | Log2(fold change) Pyroglutamic acid ([3]; metabolite Pyroglutamic acid): -0.0600 | Log2(fold change) Pyrophosphate ([3]; metabolite Pyrophosphate): -3.3800 | Log2(fold change) Ribose-5-phosphate ([3]; metabolite Ribose-5-phosphate): 0.0000 | Log2(fold change) S-adenosyl-L-homocysteine ([3]; metabolite S-adenosyl-L-homocysteine): -1.6400 | Log2(fold change) S-adenosyl-L-methioninamine ([3]; metabolite S-adenosyl-L-methioninamine): 0.0000 | Log2(fold change) S-adenosyl-L-methionine ([3]; metabolite S-adenosyl-L-methionine): 0.0000 | Log2(fold change) S-methyl-5'-thioadenosine ([3]; metabolite S-methyl-5'-thioadenosine): -0.5300 | Log2(fold change) SD ([3]; metabolite SD): -3.7000 | Log2(fold change) SDL ([3]; metabolite SDL): 0.0000 | Log2(fold change) SID ([3]; metabolite SID): 0.0000 | Log2(fold change) Sedoheptulose bisphosphate ([3]; metabolite Sedoheptulose bisphosphate): -1.3400 | Log2(fold change) Thiamine pyrophosphate ([3]; metabolite Thiamine pyrophosphate): 0.0000 | Log2(fold changes) UDP-D-glucose ([3]; metabolite UDP-D-glucose, log2 fold change): -0.2000 | Log2(fold changes) UDP-D-glucuronate ([3]; metabolite UDP-D-glucuronate, log2 fold change): -0.3600 | Log2(fold changes) UDP-N-acetyl-glucosamine ([3]; metabolite UDP-N-acetyl-glucosamine, log2 fold change): 0.0300 | Log2(fold changes) UDP ([3]; metabolite UDP, log2 fold change): -0.9600 | Log2(fold changes) UMP ([3]; metabolite UMP, log2 fold change): -0.3800 | Log2(fold changes) UTP ([3]; metabolite UTP, log2 fold change): -2.0500 | Log2(fold change) hydroxyphenylpyruvate ([3]; metabolite hydroxyphenylpyruvate): 0.0000 | Log2(fold change) hydroxyproline/Aminolevulinate ([3]; metabolite hydroxyproline/Aminolevulinate): 0.0000 | Log2(fold change) hypoxanthine ([3]; metabolite hypoxanthine): 0.2700 | Log2(fold change) indole ([3]; metabolite indole): 0.1700 | Log2(fold change) inosine ([3]; metabolite inosine): 0.1600 | Log2(fold change) isoleucine ([3]; metabolite isoleucine): 0.0000 | Log2(fold change) lactate ([3]; metabolite lactate): -1.3100 | Log2(fold change) leucine ([3]; metabolite leucine): 0.0000 | Log2(fold change) lysine ([3]; metabolite lysine): 0.0000 | Log2(fold change) malate ([3]; metabolite malate): -0.0600 | Log2(fold change) maleic acid ([3]; metabolite maleic acid): 0.0000 | Log2(fold change) methionine ([3]; metabolite methionine): 0.0000 | Log2(fold change) myo-inositol ([3]; metabolite myo-inositol): -3.2700 | Log2(fold change) nicotinamide mononucleotide ([3]; metabolite nicotinamide mononucleotide): 0.0000 | Log2(fold change) nicotinate ([3]; metabolite nicotinate): 0.7800 | Log2(fold change) ornithine ([3]; metabolite ornithine): -0.1500 | Log2(fold change) orotate ([3]; metabolite orotate): 0.9100 | Log2(fold change) orotidine-5'-phosphate ([3]; metabolite orotidine-5'-phosphate): 0.0000 | Log2(fold change) oxaloacetate ([3]; metabolite oxaloacetate): 0.0000 | Log2(fold change) p-aminobenzoate ([3]; metabolite p-aminobenzoate): 0.0000 | Log2(fold change) p-hydroxybenzoate ([3]; metabolite p-hydroxybenzoate): 0.5800 | Log2(fold change) pantothenate ([3]; metabolite pantothenate): 0.0000 | Log2(fold change) phenylalanine ([3]; metabolite phenylalanine): 0.0000 | Log2(fold change) phenylpyruvate ([3]; metabolite phenylpyruvate): -0.7100 | Log2(fold change) phosphoenolpyruvate ([3]; metabolite phosphoenolpyruvate): 0.4500 | Log2(fold change) prephenate ([3]; metabolite prephenate): 0.0000 | Log2(fold change) proline ([3]; metabolite proline): 0.0000 | Log2(fold change) pyridoxine ([3]; metabolite pyridoxine): 0.0000 | Log2(fold change) pyruvate ([3]; metabolite pyruvate): -1.3400 | Log2(fold change) riboflavin ([3]; metabolite riboflavin): 0.0000 | Log2(fold change) ribose ([3]; metabolite ribose): 0.0000 | Log2(fold change) ribose-phosphate ([3]; metabolite ribose-phosphate): -0.5600 | Log2(fold change) ribulose-5-phosphate ([3]; metabolite ribulose-5-phosphate): 0.0000 | Log2(fold change) serine ([3]; metabolite serine): 0.0000 | Log2(fold change) sn-glycerol-3-phosphate ([3]; metabolite sn-glycerol-3-phosphate): 0.6100 | Log2(fold change) succinate/Methylmalonic acid ([3]; metabolite succinate/Methylmalonic acid): 0.1400 | Log2(fold change) succinyl-CoA/methylmalonyl-CoA ([3]; metabolite succinyl-CoA/methylmalonyl-CoA): 0.0000 | Log2(fold change) taurine ([3]; metabolite taurine): 0.0000 | Log2(fold change) thiamine ([3]; metabolite thiamine): 0.0000 | Log2(fold change) threonine/homoserine ([3]; metabolite threonine/homoserine): 0.0000 | Log2(fold change) thymidine ([3]; metabolite thymidine): 0.7900 | Log2(fold changes) thymine ([3]; metabolite thymine, log2 fold change): -0.5500 | Log2(fold changes) trehalose-6-Phosphate ([3]; metabolite trehalose-6-Phosphate, log2 fold change): 0.0000 | Log2(fold changes) tryptophan ([3]; metabolite tryptophan, log2 fold change): 0.0000 | Log2(fold changes) tyrosine ([3]; metabolite tyrosine, log2 fold change): 0.0000 | Log2(fold changes) uridine ([3]; metabolite uridine, log2 fold change): -0.4400 | levels of cAMP [4]: decreased | levels of the deoxyribonucleotides dAMP and dTMP [4]: increased | nucleoside di- and tri-phosphate levels (GDP, UDP, GTP, dATP, dGTP/ATP, dUTP) [4]: decreased | peptide levels (hemoglobin catabolism signature) [4]: decreased peptide levels
